Assay results as given in US20120010075A1 (priority 2009, published 2012).
Read-outs that look alike come from different tables or passages of the source.

Tests used:
[1] = system: Leptosphaeria nodorum (LEPTNO); assay: In vitro fungitoxicity of hydrazones with and without copper towards Leptosphaeria nodorum (Example 26); format: cell-based; settings: 72 h at 25° C.; for inhibition of growth at 0.05 µg/mL: Parastagonospora nodorum, 72 h, copper-minus medium, read-out: LEPTNO % Inhn. Minus Copper Observed
[2] = system: Phytophthora infestans; format: in vivo, Phytophthora infestans on tomato; settings: applied 24 h before inoculation, assessed 7 days after inoculation
[3] = test compound Concn. 0.05 μg/mL
[4] = copper-plus medium (CuCl2 10 μM), test compound Concn. 0.05 μg/mL
[5] = hydrazone 50 ppm with 50 μM CuCl2.2H2O, tomato late blight
[6] = compound 0.05 μg/mL, copper-plus medium (CuCl2.2H2O)
[7] = hydrazone 50 ppm + 50 μM CuCl2.2H2O, tomato

| SMILES | inhibition of growth at 0.05 µg/mL [1, 3] [%] | LEPTNO % Inhn. Plus Copper Observed [1, 4] [%] | melting point [°C] | TLB % Control [2, 5] [%] | inhibition of growth at 0.05 µg/mL ([1]; compound 0.05 μg/mL) [%] | LEPTNO % Inhn. Plus Copper Observed [1, 6] [%] | TLB % Control [2, 7] [%] |
| --- | --- | --- | --- | --- | --- | --- | --- |
| C/C(=N\NC(=O)c1ccccc1)c1cc(Br)cc(Br)c1O [Example 539] | 1.6 | 98.0 | 242 to 245 | 100.0 |  |  |  |
| C/C(=N\NC(=O)c1ccccc1O)c1cc(Br)cc(Br)c1O [Example 550] | 4.6 | 97.2 | 305 to 306 | 63.0 |  |  |  |
| O=C(N/N=C/c1cc(C(F)(F)F)ccc1O)c1ccc([N+](=O)[O-])cc1 [Example 442] | 0 | 100.0 | 259 to 265 | 98.0 |  |  |  |
| O=C(N/N=C/c1c(Cl)ccc(Cl)c1O)c1cccc([N+](=O)[O-])c1 [Example 371] | 12.6 | 96.1 | 273 to 277 | 98.0 |  |  |  |
| COc1ccc(/C(C)=N/NC(=O)c2ccccc2O)c(O)c1OC [Example 562] | 1.4 | 97.3 | 279 to 297 | 91.0 |  |  |  |
| C/C(=N\NC(=O)c1ccccc1Br)c1cc(Cl)cc(Cl)c1O [Example 57] |  |  | 220 to 222 |  | 0 | 97.3 | 89.5 |
| O=C(N/N=C/c1cccc(C(F)(F)F)c1O)c1ccccc1 [Example 296] | 8.3 | 97.7 | 170 to 173 | 84.7 |  |  |  |
| COc1ccc(C(=O)N/N=C(\C)c2cccc(Cl)c2O)cc1 [Example 499] | 0 | 97.4 | 203 to 204 | 85.0 |  |  |  |
| CC/C(=N\NC(=O)c1ccccc1)c1cc(Cl)cc(Cl)c1O [Example 590] | 10 | 98.6 | 214 to 215 | 88.0 |  |  |  |
| C/C(=N\NC(=O)c1ccccc1C)c1cccc(Cl)c1O [Example 493] | 0 | 97.8 | 193 to 198 | 95.0 |  |  |  |
| O=C(N/N=C/c1cc(Cl)c(C(F)(F)F)cc1O)c1ccccc1 [Example 318] | 3.1 | 97.3 | 242 to 243 | 71.2 |  |  |  |
| O=C(N/N=C/c1c(Cl)ccc(Cl)c1O)c1ccccc1C(F)(F)F [Example 373] | 0 | 97.3 | 221 to 222 | 90.0 |  |  |  |
| O=C(N/N=C/c1cc(Br)cc(Br)c1O)c1ccc2ccccc2c1 [Example 111] |  |  | 237 to 239 |  | 16.8 | 97.4 | 63.6 |
| Cc1ccc(C(=O)N/N=C/c2cc(C(F)(F)F)cc(Cl)c2O)c(O)c1 [Example 331] | 22.8 | 97.8 | 255 to 257 | 100.0 |  |  |  |
| O=C(N/N=C/c1cc(Cl)ccc1O)c1cccc(F)c1 [Example 420] | 11.4 | 97.5 | 205 to 224 | 100.0 |  |  |  |
| O=C(N/N=C/c1cc(Cl)cc(Cl)c1O)c1cc(Cl)ccc1O [Example 475] | 33.8 | 97.1 | 287 to 292 | 100.0 |  |  |  |
| Cc1cccc(C(=O)N/N=C/c2cccc(C(F)(F)F)c2O)c1 [Example 343] | 2.8 | 95.4 | 188 to 190 | 97.0 |  |  |  |

| SMILES | inhibition of growth at 0.05 µg/mL [1, 3] [%] | LEPTNO % Inhn. Plus Copper Observed [1, 4] [%] | melting point [°C] | TLB % Control [2, 5] [%] | inhibition of growth at 0.05 µg/mL ([1]; compound 0.05 μg/mL) [%] | LEPTNO % Inhn. Plus Copper Observed [1, 6] [%] | TLB % Control [2, 7] [%] |
| --- | --- | --- | --- | --- | --- | --- | --- |
| COc1cc(O)c(/C(C)=N/NC(=O)c2ccccc2O)c(OC)c1 [Example 586] | 0 | 87.3 | 182 to 199 | 31.0 |  |  |  |
| O=C(N/N=C(/c1cc(Cl)cc(Cl)c1O)C(F)(F)F)c1ccccc1 [Example 587] | 6.2 | 96.6 | 195 to 196 | 2.4 |  |  |  |
| C/C(=N\NC(=O)c1cccc(Cl)c1)c1cccc([N+](=O)[O-])c1O [Example 273] |  |  | 251 to 286 |  | 0.4 | 97.7 | 44.0 |
| COc1ccc(C(=O)N/N=C(\C)c2cccc([N+](=O)[O-])c2O)cc1 [Example 521] | 5 | 95.9 | 204 to 212 | 83.0 |  |  |  |
| C/C(=N\NC(=O)c1ccccc1O)c1cc(Cl)ccc1O [Example 515] | 0 | 97.6 | 298 to 318 | 47.0 |  |  |  |
| O=C(N/N=C/c1c(O)cccc1C(F)(F)F)c1ccccc1 [Example 297] | 0 | 96.4 | 228 to 230 | 69.5 |  |  |  |
| COc1ccc(/C(C)=N/NC(=O)c2ccccc2Cl)c(O)c1OC [Example 555] | 3.7 | 92.5 | 77 to 86 | 46.0 |  |  |  |
| COc1ccc(O)c(/C(C)=N/NC(=O)c2ccc(C)cc2)c1 [Example 264] |  |  | 159 to 162 |  | 6 | 98.4 | 21.0 |
| C/C(=N\NC(=O)c1ccc(C)cc1)c1cc(C(F)(F)F)ccc1O [Example 530] | 9.8 | 96.2 | 225 to 229 | 59.0 |  |  |  |
| C/C(=N\NC(=O)c1ccc(C)cc1)c1cc(Br)cc(Br)c1O [Example 542] | 0 | 95.8 | 258 to 259 | 100.0 |  |  |  |
| C/C(=N\NC(=O)Cc1ccc(F)cc1)c1cc(Cl)cc(Cl)c1O [Example 17] |  |  | 209 to 213 |  | 9.4 | 95.9 | 69.0 |
| O=C(N/N=C/c1c(Cl)ccc(Cl)c1O)c1ccccc1 [Example 247] |  |  | 204 to 205 |  | 10.1 | 94.0 | 84.7 |
| COc1ccc(/C(C)=N/NC(=O)c2ccc(Br)cc2)c(O)c1OC [Example 559] | 10 | 97.3 | 241 to 245 | 93.0 |  |  |  |
| O=C(N/N=C/c1ccc(Cl)c(Cl)c1O)c1ccccc1O [Example 362] | 11.1 | 97.2 | 280 to 282 | 97.0 |  |  |  |
| C/C(=N\NC(=O)c1ccccc1Br)c1cc(F)cc(F)c1O [Example 582] | 12.2 | 97.8 | 190 to 195 | 94.0 |  |  |  |
| C/C(=N\NC(=O)c1cccc(Cl)c1)c1cc(C)ccc1O [Example 316] | 4.5 | 97.1 | 231 to 241 | 14.0 |  |  |  |
